Data: US20250381277A1, “COMPOSITIONS AND METHODS FOR TREATMENT OF NEUROLOGICAL DISORDERS” (Dana-Farber Cancer Institute, Inc., priority 2022, published 2025)
“Also recorded” adds a separate entry of the source.

Test system: 5XFAD mice
Assay: Weekly intravenous or intranasal cyclic RGD (Cilengitide) administration to 5XFAD mice: microglial proinflammatory responses
Type: in vivo, mouse
Settings: vs saline
Procedure: (A) Schematic outline of cyclic RGD (Cilengitide) administration. Weekly intravenous injection (25 mg/kg) or intranasal delivery (10 mg/kg) of Cilengitide or vehicle control (saline) into 5XFAD mice starting at 6-mo of age for 1 or 2 months. Microglial proinflammatory responses were analyzed after 1-mo or 2-mo treatment. […] IV injection of Cilengitide for 1 month reduced the percentage of CD11c^+ microglia by 50% and decreased CD11c^+ microglial TNF-α production by ˜50% in 5XFAD mice (n=3). […]. […] IV injection of Cilengitide for 2 months reduced the percentage of CD11c+ microglia by 60% and decreased CD11c+ microglial TNF-α production by 55% in 5XFAD mice compared with vehicle (saline) treated control mice (n=3). *p<0.05, **p<0.01, ***p<0.001.
Weekly administration of cyclic RGD (Cilengitide) was given intravenously or intranasally to 6-mo old mice, continuing for 1 or 2 months. Microglial proinflammatory responses and Aβ plaque pathology were analyzed after 1-mo or 2-mo of treatment (FIG. 43A).

[1] = intranasal 10 mg/kg weekly, 1 month
[2] = intranasal 10 mg/kg weekly, 2 months

For `CC(C)[C@H]1C(=O)N[C@@H](CCCN=C(N)N)C(=O)NCC(=O)N[C@@H](CC(=O)O)C(=O)N[C@H](Cc2ccccc2)C(=O)N1C` [Cilengitide], the “decrease of CD11c^+ microglial TNF-α production” value (IV 25 mg/kg weekly, 1 month) was roughly 50%, the “reduction of percentage of CD11c^+ microglia” value (IV 25 mg/kg weekly, 1 month) was 50% and the “decrease of CD11c+ microglial TNF-α production” value (IV 25 mg/kg weekly, 2 months) was 55%. The “reduction of percentage of CD11c+ microglia” value (IV 25 mg/kg weekly, 2 months) was 60%, the “CD11c^+ microglia (in words)” value [1] was “decrease; also recorded: decreased tendency” and the “reduction of TNF-α production by CD11c^+ microglia” value [1] was roughly 35%. For the same compound, the “decrease of percentage of CD11c+ microglia” value [2] was 35% and the “reduction of TNF-α expression by CD11c+ microglia” value [2] was roughly 45%.
